Here are results for two compounds from patent US10774098B2, “Nahlsgen optical resolution method” (KYOTO UNIVERSITY, priority 2016, dated 2020).

In the test the test system is normal human epidermal cells. Description: glutathione production promotion activity (glutathione reductase recycling assay). The test is classed as cell-based. Particulars: for GSH (pmol/μg protein) Mean: cultivation for 24 hours. The source says:
The equal amount mixture obtained in Example 1 was used as a sample and evaluated for glutathione production promotion activity by the following procedure.
Specifically, normal human epidermal cells were inoculated to a 96-well microplate housing a normal human epidermic keratinocyte growth medium (trade name HuMedia KG2, supplied by Kurabo Industries Ltd.) in a cell density of 2.0×10^4 cells per 96 wells.
Twenty-four (24) hours after the inoculation, the medium was exchanged with a normal human epidermic keratinocyte growth medium (trade name HuMedia KB2, supplied by Kurabo Industries Ltd.) containing the sample in a predetermined concentration, and the cultivation was continued.
As a positive control, a cultivation was performed by a procedure similar to above, except for using, instead of the sample, Nahlsgen (DL-2-amino-4-[(RSp)-(3-carboxymethylphenoxy)(methoxy)phosphoryl]butanoic acid, trade name GGsTop, supplied by Wako Pure Chemical Industries, Ltd.).
As a blank, a cultivation was performed a procedure similar to above, except for not using the sample.
After cultivation for 24 hours, the cells were disrupted by ultrasonication using a phosphoric acid buffer containing 100-μM phenylmethylsulfonyl fluoride, and the total amount of glutathione was quantitatively measured by the after-mentioned glutathione reductase recycling assay.
Specifically, the disrupted cell suspension was combined with reduced nicotinamide adenine dinucleotide phosphate and glutathione reductase, followed by reaction at 37° C. for 10 minutes.
Next, 0.1 M phosphate buffer solution (containing 0.5 M EDTA, pH 7.5) containing 10 mM 5,5′-dithiobis(2-nitrobenzoic acid) was added, the absorbance (at 450 nm) was measured immediately after addition, and after 30 minute-incubation, and the difference between two measurements ((absorbance after 30 minute-incubation)−(absorbance immediately after addition)) was defined as an index for glutathione synthesis quantity.
The total amount of glutathione in the disrupted cell suspension was calculated on the basis of a calibration curve plotted using oxidized glutathione. The protein content in the disrupted cell suspension was quantitatively determined using the Pierce Microplate BCA Protein Assay Kit (Thermo SCIENTIFIC). The glutathione synthesis quantity was evaluated for differences from the untreated specimen (blank) and from the positive control by a significant difference test using Student's t-test.

As for `COP(=O)(CC[C@H](N)C(=O)O)Oc1cccc(CC(=O)O)c1` (mixture of isomers) [Nahlsgen, DL-2-amino-4-[(RSp)-(3-carboxymethylphenoxy)(methoxy)phosphoryl]butanoic acid], the “GSH (pmol/μg protein) Mean” value (Conc. 10.00 μmol/L) came to 44.7 pmol/μg protein.
Turning to “equal-amount mixture of D-2-amino-4-[(Rp)-(3-carboxymethylphenoxy)(methoxy)phosphoryl]butanoic acid monohydrate and L-2-amino-4-[(Sp)-(3-carboxymethylphenoxy)(methoxy)phosphoryl]butanoic acid monohydrate [Example 1]”, the “GSH (pmol/μg protein) Mean” value came to 44.2 pmol/μg protein (Conc. 2.00 μmol/L), 48.1 pmol/μg protein (Conc. 10.00 μmol/L), 38.0 pmol/μg protein (Conc. 50.00 μmol/L) and 41.5 pmol/μg protein (Conc. 250.00 μmol/L). The “glutathione (GSH) amount compared with the blank (untreated cells)” value (result in words, summary of Table 1) is recorded as “significantly increased glutathione (GSH) amount as well as or better than the cells treated with Nahlsgen”.
